In paper PMC3985299, “Single Ascending Dose Safety and Pharmacokinetics of CDRI-97/78: First-in-Human Study of a Novel Antimalarial Drug” (Malaria Research and Treatment, 2014):
Entries after “also recorded” stand apart in the source; their conditions may differ.

Key:
healthy human volunteers = experiment: Single ascending dose study: clinical parameters (blood pressure, pulse rate, respiratory rate, corrected QT); assay type: in vivo; set-up: SBP / DBP: unit not given here; conditions: for DBP / SBP: 2 hours after drug administration; for Diastolic blood pressure: 600 and 700 mg group
Excerpt: The volunteers after giving informed consent were screened. The screening process was done latest within 1 month of admission for dosing. The volunteers who fulfilled the inclusion/exclusion criteria were admitted in the CPU the night before drug administration. Standardized dinner was served at 9 pm the night prior to dosing. On day 0, baseline blood sample for biochemical and haematological examination and stool and urine samples for routine and microscopy were taken. They received the study drug, according to the randomization sequence, under supervision. The empty packaging was returned to the container. The volunteers received drug as per randomization. Breakfast was given half an hour after drug administration. Subsequently, standardized lunch and dinner were served to the volunteers.
The subjects were attached to a cardiac monitor and vital HR, BP, ECG, oxygen saturation, and RR were recorded. Corrected QT interval using Fridericia's formula was calculated. Adverse events were assessed at specific time points (0.5, 1, 2, 4, 6, 8, 12, and 24 hrs after medication). Unscheduled monitoring was undertaken whenever it felt necessary. The volunteers were discharged after 24 hrs and they had to return at 48 hrs and on the 7th day for follow-up. At the end of the 7th day, they were said to have completed the study. Routine haematological and biochemical investigations were performed at 0 hr, 24 hrs after drug administration, and on day 7. The study was monitored by a Data Safety Monitoring Board.

[1] = Single oral dose (200 mg) pharmacokinetic study, plasma LC-MS/MS, noncompartmental analysis; assay type: in vivo, human; conditions: oral 200 mg
Description: For pharmacokinetic (PK) study, eligible participants were admitted and housed in the clinical pharmacology unit an evening prior to the PK study. A standard dinner was served and a fasting condition for at least 10 hrs prior to dosing and 4 hrs after dosing was ensured. A peripheral forearm vein was cannulated for sampling for the PK analysis. 200 mg of the study drug was administered with 300 mL of water. The time of actual dose administration to the nearest minute was recorded. 2.5 mL of blood was collected from the indwelling cannula at 0 (before dose), 0.25, 0.5, 0.75, 1, 1.5, 2, 4, 6, 8, 12, 18, 24, 48, 72, 96, 120, and 144 hrs (after dose). 10 mL of additional blood was collected at 0 (before dose) and 24 hr (after dose) for laboratory parameters for safety assessment and PK control sample. A time window of ±2 minutes was permitted for collecting the post dose samples from the scheduled time for PK analysis. Plasma was separated from blood sample intended for PK analysis, within 1 hour of blood sampling, by centrifugation at 2000 rpm for 10 min at 4°C. Samples were stored at −80°C pending transportation. Heparinised blood samples were transported to the laboratory within 7 days of collection. Quantitative analyses of clinical phase ascending dose and single dose PKs samples were done at GLP lab of Pharmacokinetics and Metabolism Division, CDRI, Lucknow, India. α-Arteether was used as an internal standard and all the analyses were performed as per the published method by Singh et al. 2009 [19]. Acceptance criteria for analytical runs were fixed as per internationally approved guidelines. Data acquisition and quantitation were performed using analyst software version 1.4 (Applied Biosystems, MDS SCIEX Toronto, Canada). PK parameters were estimated by using WinNonlin software (Version 1.5, Pharsight Corporation, Mountain View, CA). Oral data were best fitted in noncompartmental model. The individual plasma concentration-time profiles were subjected to noncompartmental analysis to determine various PK parameters. The PK parameters included the terminal elimination half-life (T 1/2), maximum plasma concentration (C max), time to reach maximum plasma concentration (T max), area under the curve (AUC0–∞), and mean residence time (MRT).

rats = tested on: rats; set-up: method as in printed; conditions: preclinical, used for starting dose, ref not given; cited from earlier work

Which DBP (healthy human volunteers; 80 mg) does the source give for C=C(c1ccc(OC(C)(C)COC(=O)CCC(=O)O)cc1)C1COC2(OO1)C1CC3CC(C1)CC2C3 (stereo not drawn) [CDRI 97/78, Mono[2methyl2[3(1spiro[tricycle[3.3.1.13,7]decane2,3′-[1,2,4]trioxan] 6′-ylethenyl)phenoxy]propyl] ester] here?
The DBP was 73 ± 5.21.

What about the SBP (healthy human volunteers; 80 mg) of the same compound?
Its SBP is 112.17 ± 6.24.

What about the DBP (healthy human volunteers; 160 mg) of the same compound?
The DBP was 77.17 ± 8.06.

What about the SBP (healthy human volunteers; 160 mg) of the same compound?
The SBP was 119.5 ± 5.17.

What about the DBP (healthy human volunteers; 320 mg) of the same compound?
The DBP was 82.33 ± 4.68.

And the SBP (healthy human volunteers; 320 mg)?
Its SBP is 127.5 ± 6.38.

What about the DBP (healthy human volunteers; 400 mg) of the same compound?
Its DBP is 71.33 ± 8.19.

What about the SBP (healthy human volunteers; 400 mg) of the same compound?
The SBP was 111.83 ± 7.91.

What about the DBP (healthy human volunteers; 500 mg) of the same compound?
Its DBP is 71.83 ± 7.81.

What about the SBP (healthy human volunteers; 500 mg) of the same compound?
Its SBP is 114.5 ± 8.34.

What about the DBP (healthy human volunteers; 600 mg) of the same compound?
Its DBP is 66.5 ± 6.53.

What about the SBP (healthy human volunteers; 600 mg) of the same compound?
The SBP was 112.83 ± 6.18.

What about the DBP (healthy human volunteers; 700 mg) of the same compound?
Its DBP is 69 ± 8.48.

What about the SBP (healthy human volunteers; 700 mg) of the same compound?
Its SBP is 115.5 ± 2.12.

What about the “Corrected QT interval (Fridericia), change within treatment groups” value (healthy human volunteers; 80-700 mg groups) of the same compound?
Its value is “no statistically or clinically significant difference; also recorded: No clinically meaningful alteration”.

And the Diastolic blood pressure (healthy human volunteers; 0 hours)?
Its Diastolic blood pressure is 76.87 ± 8.74 mmHg.

What about the Diastolic blood pressure (healthy human volunteers; 0.5 hours) of the same compound?
Its Diastolic blood pressure is 78.37 ± 8.86 mmHg.

What about the Diastolic blood pressure (healthy human volunteers; 1 hours) of the same compound?
The Diastolic blood pressure was 79.25 ± 13.46 mmHg.

What about the Diastolic blood pressure (healthy human volunteers; 2 hours) of the same compound?
The Diastolic blood pressure was 67.12 ± 6.49 mmHg.

And the Diastolic blood pressure (healthy human volunteers; 4 hours)?
Its Diastolic blood pressure is 73.12 ± 12.32 mmHg.

And the Diastolic blood pressure (healthy human volunteers; 6 hours)?
Its Diastolic blood pressure is 75.87 ± 8.11 mmHg.

And the Diastolic blood pressure (healthy human volunteers; 8 hours)?
The Diastolic blood pressure was 74 ± 11 mmHg.

And the Diastolic blood pressure (healthy human volunteers; 12 hours)?
Its Diastolic blood pressure is 75 ± 10.03 mmHg.

And the “Pulse rate, respiratory rate and systolic blood pressure, change compared to baseline” value (healthy human volunteers; any time point, all treatment groups)?
Its value is “None of the treatment groups demonstrated a significant alteration”.

And the Absorption [1]?
The Absorption was “rapidly absorbed”.

What about the “Plasma concentration of parent molecule” value ([1]; most of the volunteers) of the same compound?
Its value is “below the limit of quantitation”.

What about the Maximum tolerated dose (rats) of the same compound?
Its Maximum tolerated dose is 100 mg/kg.
